One assay deals with BCL-2 G4. In words: Microscale thermophoresis (MST) binding to BCL-2 G4. Set-up: species or system human. Conditions: 25°C, 20 nM FITC-labelled peptide, DNA serial dilution, 5 mM KH2PO4/K2HPO4 pH 7.0, 20 mM KCl, 0.1% Tween, 5% DMSO. How it is done: (§1) MST experiments were conducted using a Monolith NT.115 instrument (NanoTemper Technologies, Munich, Germany) at 25°C with medium MST power settings. […] DNA samples were also diluted using the same buffer supplemented with 0.1% Tween. During MST experiments, the concentration of the labelled peptide was kept constant at 20 nM, while a serial dilution of the investigated DNA molecules (ranging from 10 or 20 μM) was prepared and mixed with the peptide solution in a 1:1 volume ratio. All the samples, with a final concentration of 5% DMSO, were loaded into standard capillaries (NanoTemper Technologies) for MST measurements. Data analysis was carried out using the MO.Affinity Analysis (v2.3) software provided with the instrument.
A general note: In MST a laser heats a spot of the sample, and binding alters the fluorescence response.

The target of another assay is c-KIT1 G4. The assay can be described thus: Microscale thermophoresis (MST) binding to c-KIT1 G4. The arrangement: species or system human. Conditions: 25°C, 20 nM FITC-labelled peptide, DNA serial dilution, 5 mM KH2PO4/K2HPO4 pH 7.0, 20 mM KCl, 0.1% Tween, 5% DMSO. How it is done: as §1
Assay [1] concerns c-KIT2 G4. In words: Isothermal titration calorimetry (ITC) with c-KIT2 G4. Type of assay: binding, human. Conditions: ITC at 25°C, triplicate. How it is done:
ITC experiments were conducted at 25°C using a nano-ITC Low Volume calorimeter (TA instruments, Lindon, UT, USA). DNA and peptide solutions were prepared using the same batch of buffer (5 mM KH2PO4/K2HPO4 buffer containing 20 mM KCl, pH 7.0) to prevent differences in buffer composition and pH. Each titration consisted of 25 injections of a 2 μl peptide solution (280–400 μM) sequentially injected using a computer-controlled 50 μl syringe, into the calorimetric vessel (190 μl) containing the oligonucleotide (16–20 μM). A spacing of 300 s between each injection was applied to allow the system to reach the equilibrium. The heat generated by peptide dilution was assessed in a control experiment by injecting the peptide solution into the buffer (Supplementary Figure S30). All measurements were performed in triplicate. Subsequently, the interaction heat for each injection was calculated considering the correction for the heat of peptide dilution. The corrected heat values were plotted as a function of the molar ratio to provide binding isotherms. The isotherms were fitted with a multiple-sites binding model using the NanoAnalyze software (TA instruments) provided with the instrument. This analysis provided the equilibrium binding constant (Ka), binding enthalpy (ΔH°), and stoichiometry of interaction (n). The equilibrium dissociation constant (Kd), Gibbs free-energy change and entropy change were determined using the following relationships: Kd = 1/Ka, ΔG° = -RT ln Ka (R = 8.314 J mol^−1 K^−1, T = 298.15 K), and TΔS° = ΔH° – ΔG°.

A further assay addresses c-MYC G4. The assay can be described thus: Microscale thermophoresis (MST) binding to c-MYC G4. The conditions noted are these: 25°C, 20 nM FITC-labelled peptide, DNA serial dilution, 5 mM KH2PO4/K2HPO4 pH 7.0, 20 mM KCl, 0.1% Tween, 5% DMSO. Set-up: species or system human. The procedure:
as §1

The next assay has as its target VEGFR-17T G4. The assay can be described thus: Microscale thermophoresis (MST) binding to VEGFR-17T G4. The arrangement: species or system human. Conditions: 25°C, 20 nM FITC-labelled peptide, same buffer, n.d. = not determined due to undetectable binding. The procedure: as §1
The next assay deals with HT-FANA G4. In words: Microscale thermophoresis (MST) binding to HT-FANA G4. Set-up: species or system human. Conditions: 25°C, 20 nM FITC-labelled peptide, DNA serial dilution, 5 mM KH2PO4/K2HPO4 pH 7.0, 20 mM KCl, 0.1% Tween, 5% DMSO. The procedure: as §1
Assay [2] has as its system c-KIT2 G4. In words: CD melting, thermal stabilization of c-KIT2 G4. It counts as binding, human. The conditions noted are these: CD melting at 264 nm, 5 mM KH2PO4/K2HPO4 pH 7.0, 20 mM KCl, average of three. The text has this:
The buffer baseline was subtracted from each spectrum.

The next assay has as its target LWDLN1 G4. In words: Microscale thermophoresis (MST) binding to LWDLN1 G4. The conditions noted are these: 25°C, 20 nM FITC-labelled peptide, same buffer, n.d. = not determined due to undetectable binding. How it is done: as §1
In the next assay the test system is U2OS cells. The assay can be described thus: Viability assay (crystal violet), U2OS. It counts as cell-based. Conditions: 72 h treatment, unconjugated peptides. How it is done: U2OS, HCT116 and MDA-MB-231 cells were purchased from the ATCC and grown in Dulbecco modified Eagle's medium (DMEM; EuroClone, Milan, Italy; ECM0728L) supplemented with 10% Fetal Bovine Serum (FBS, ThermoFisher Scientific/Gibco, Waltham, MA, USA; 10270-106), 2 mM L-glutamine and antibiotics in a humidified incubator at 37°C with 5% CO2 and atmospheric O2 concentration. Cell lines were authenticated and tested to be mycoplasma-free.
U2OS, HCT116, and MDA-MB-231 cells were seeded in 24-well plates at a density of 1 × 10^4, 20 × 10^3 and 12 × 10^3 for each well, respectively. After 24 h, cells were treated with the indicated peptides and incubated at 37°C for additional 72 h. Upon treatment completion, cell medium was removed, the wells were washed twice in phosphate-buffered saline (PBS) and fixed with 4% formaldehyde for 15 min at room temperature (RT). After washing, 500 μl of crystal violet staining solution (Sigma-Aldrich, St. Louis, MO, USA) was added to each well and incubated for 30 min at RT. Finally, the plates were rinsed twice with water, air-dried and cell pellets were dissolved in 400 μl of a 10% aqueous solution of acetic acid. In total, 200 μl of each sample was transferred to a 96-well plate, and the optical density was measured at 570 nm (OD570) with an ELISA reader (Thermo Scientific, Waltham, MA, USA). The average absorbance in each condition was used to calculate the viability expressed as a percentage of treated vs untreated conditions (CTR).

“And” between values parts separate entries of the source, which are not always exact repeats. Equal values may be shown once.

One may read the Kd as the concentration at which binding is half-saturated. A high value points to weaker binding.

With “Ac-NHTGNSIRHRFRVYLSKRL-NH2 [Myb^397–415]”, the Kd on BCL-2 G4 was found to be 280 nM; on c-KIT1 G4 it was 340 nM; on c-KIT2 G4 [1] (c-KIT2 G4, Kd = 1/Ka), 200 nM; on c-MYC G4 it was 430 nM; on HT-FANA G4 it was 140 nM. In the assay on c-KIT2 G4 [1] (c-KIT2 G4 16–20 μM, peptide 280–400 μM, 5 mM KH2PO4/K2HPO4, 20 mM KCl, pH 7.0), the Ka was 5.0 × 10^6 M^−1 and 5.0 (±0.3) ×10^6 M^−1. Also, the “Kd for binding to VEGFR-17T G4” value at VEGFR-17T G4 is “negligible binding”. Besides, the “ΔT1/2 of c-KIT2 G4” value is 11.2 °C and 11.2 (±0.2) °C in the assay on c-KIT2 G4 [2] (2 μM DNA, 1 mol equiv peptide, 1°C/min, T1/2 DNA alone 59.5°C); 17.3 (±0.2) °C in the assay with c-KIT2 G4 [2] (2 mol equiv of peptide with respect to G4, 2 μM DNA, T1/2 c-KIT2 alone 59.5°C). Besides, at LWDLN1 G4, the “Kd for binding to LWDLN1 G4” value is reported as “negligible binding”. In addition, in the assay on U2OS cells, the “Impact on cancer cell viability, peptides in native form” value is “unable to significantly impact cancer cells viability”.

These data come from PMC11229374, “Unlocking the potential of protein-derived peptides to target G-quadruplex DNA: from recognition to anticancer activity” (Nucleic Acids Research, 2024).
